Test results from PubChem BioAssay AID624124 (The Scripps Research Institute Molecular Screening Center, 2012).

Target: Tyrosine-protein kinase ABL1 (Homo sapiens) + Ras and Rab interactor 1 (Homo sapiens) (UniProt P00519+Q13671)
Assay: inhibitors of Rin1-Abl protein interaction, late-stage follow-up, biochemical, TR-FRET, round 1 (AID 624124)
Settings: TR-FRET Rin1-Abl binding assay

Chain of Tyrosine-protein kinase ABL1 (Homo sapiens) + Ras and Rab interactor 1 (Homo sapiens) (P00519 whole entry, looked up): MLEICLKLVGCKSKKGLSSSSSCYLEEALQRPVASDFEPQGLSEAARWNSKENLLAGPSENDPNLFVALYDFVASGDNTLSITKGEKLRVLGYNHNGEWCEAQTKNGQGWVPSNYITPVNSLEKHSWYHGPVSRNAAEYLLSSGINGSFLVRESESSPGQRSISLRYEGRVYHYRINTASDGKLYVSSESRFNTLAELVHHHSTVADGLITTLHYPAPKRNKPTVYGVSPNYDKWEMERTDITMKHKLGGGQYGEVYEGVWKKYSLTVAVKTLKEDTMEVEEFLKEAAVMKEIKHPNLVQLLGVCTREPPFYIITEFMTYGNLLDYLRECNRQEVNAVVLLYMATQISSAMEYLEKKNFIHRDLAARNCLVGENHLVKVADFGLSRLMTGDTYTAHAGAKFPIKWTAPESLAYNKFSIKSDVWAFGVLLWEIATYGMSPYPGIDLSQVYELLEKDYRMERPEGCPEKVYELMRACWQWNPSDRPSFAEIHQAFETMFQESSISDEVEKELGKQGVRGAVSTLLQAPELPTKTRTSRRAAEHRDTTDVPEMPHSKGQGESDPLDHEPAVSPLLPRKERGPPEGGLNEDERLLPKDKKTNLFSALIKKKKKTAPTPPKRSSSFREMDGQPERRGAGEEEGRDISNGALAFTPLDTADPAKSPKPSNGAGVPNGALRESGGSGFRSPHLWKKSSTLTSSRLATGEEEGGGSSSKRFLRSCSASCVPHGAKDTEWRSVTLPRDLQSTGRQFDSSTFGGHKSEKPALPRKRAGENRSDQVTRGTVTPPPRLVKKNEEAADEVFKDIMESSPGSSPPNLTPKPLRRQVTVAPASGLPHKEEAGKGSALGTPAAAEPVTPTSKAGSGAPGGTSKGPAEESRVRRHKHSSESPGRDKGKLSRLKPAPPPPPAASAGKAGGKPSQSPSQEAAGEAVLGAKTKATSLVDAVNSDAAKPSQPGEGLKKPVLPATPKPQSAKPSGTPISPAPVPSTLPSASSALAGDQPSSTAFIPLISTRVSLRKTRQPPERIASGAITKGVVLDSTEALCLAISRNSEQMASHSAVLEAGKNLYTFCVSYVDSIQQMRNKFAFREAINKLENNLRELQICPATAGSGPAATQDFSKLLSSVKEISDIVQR
Chain of Tyrosine-protein kinase ABL1 (Homo sapiens) + Ras and Rab interactor 1 (Homo sapiens) (Q13671 whole entry, looked up): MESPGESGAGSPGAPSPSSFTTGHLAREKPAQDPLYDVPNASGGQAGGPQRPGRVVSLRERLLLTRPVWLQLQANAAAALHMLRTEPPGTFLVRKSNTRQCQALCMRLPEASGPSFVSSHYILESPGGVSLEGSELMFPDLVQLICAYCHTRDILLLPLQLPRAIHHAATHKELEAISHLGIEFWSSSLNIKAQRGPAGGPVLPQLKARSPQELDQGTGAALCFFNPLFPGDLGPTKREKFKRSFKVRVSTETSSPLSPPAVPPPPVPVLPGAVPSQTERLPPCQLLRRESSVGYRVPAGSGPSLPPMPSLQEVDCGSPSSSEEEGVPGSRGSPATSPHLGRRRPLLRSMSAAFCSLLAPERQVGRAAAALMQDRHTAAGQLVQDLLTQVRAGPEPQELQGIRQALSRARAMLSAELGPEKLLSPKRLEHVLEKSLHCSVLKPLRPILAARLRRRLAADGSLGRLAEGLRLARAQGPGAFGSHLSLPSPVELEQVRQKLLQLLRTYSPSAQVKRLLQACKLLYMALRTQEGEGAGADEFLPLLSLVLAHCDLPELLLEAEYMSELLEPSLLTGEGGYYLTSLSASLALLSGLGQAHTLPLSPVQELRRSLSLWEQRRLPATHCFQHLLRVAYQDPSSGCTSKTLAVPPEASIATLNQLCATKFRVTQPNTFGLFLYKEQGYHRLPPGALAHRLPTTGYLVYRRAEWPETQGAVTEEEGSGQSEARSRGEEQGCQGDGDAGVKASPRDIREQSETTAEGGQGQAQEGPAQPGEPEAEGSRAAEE

Row | IC50 | Structure (SMILES)
1 | 1060 nM | CN(C(=O)c1ccc(NC(=O)Cc2ccc(NC(=O)C3CCN(C(=O)c4ccc(F)cc4)CC3)cc2)cc1)C1CC1
2 | 620 nM | CN(C(=O)c1ccc(NC(=O)Cc2ccc(NC(=O)C3CCN(C(=O)c4ccccc4)CC3)cc2)cc1)C1CC1
3 | 3670 nM | COc1ccc(C(=O)N2CCC(C(=O)Nc3ccc(CC(=O)Nc4ccc(C(=O)N(C)C5CC5)cc4)cc3)CC2)cc1
4 | 1350 nM | CN(C(=O)c1ccc(NC(=O)Cc2ccc(NC(=O)C3CCN(C(=O)c4cccc(F)c4)CC3)cc2)cc1)C1CC1
